Assays:
Con A Oo12 ApM activity = assay: Con A O12 aminopeptidase inhibition assay, ApM (leucine p-nitroanilide); type: biochemical, Ostertagia ostertagi
Method: (§1) The effect of various protease inhibitors on Oo12 activity was assayed and included amastatin (aminopeptidase inhibitor), actinonin (aminopeptidase inhibitor), bestatin (aminopeptidase inhibitor), EDTA (metallo-protease inhibitor), E64 (cysteine protease inhibitor), pepstatin (aspartic protease inhibitor), 1,10 phenanthroline (metallo-protease inhibitor) and 3,4-dichloroisocoumarin (DCI, serine protease inhibitor). 10 μl Con A Oo12 and 100 μl 50 mM Mops buffer, pH 7.0 was added to a microtitre plate well and 2-4 μl of enzyme inhibitor added, to give a final concentration of 0.5 mM and 1 mM actinonin, 50 μM and 100 μM bestatin, 1 mM and 15 mM EDTA, 50 μM and 100 μM E64, 10 and 50 μM pepstatin, 1 mM and 10 mM 1,10 phenanthroline, 100 μM and 500 μM DCI. The plate was preincubated at 37° C. for 20-28 minutes and then assayed for ApM and ApA activity. 100 μl 2 mM leucine p-nitroanilide (ApM) or α-glutamic p-nitroanilide (ApA)/Mops was added per well and the optical density (OD) at 405 nm read using an Elisa plate reader. The plates were incubated at 37° C. for 45-48 minutes and the final OD reading was then taken. The OD change per minute per 10 μl sample was calculated. All assays were carried out in triplicate.

Con A Oo12 ApA activity = assay: Con A O12 aminopeptidase inhibition assay, ApA (α-glutamic p-nitroanilide); type: biochemical, Ostertagia ostertagi
Method: as §1

pig ApA and ApM = conditions: Aoyagi et al., J. Antibiotics 43(2); cited from earlier work
Oc12 = assay: Blot of O. circumcincta extracts probed with biotinylated lectins; type: binding, Ostertagia circumcincta; conditions: electroblot of O.circumcincta extracts
Source text: The O.circumcincta extracts were electroblotted alongside a sample of H110D and probed with several biotinylated lectins to determine which, if any, would bind to Oc12. (FIG. 8). Biotinylated Concanavalin A, Ulex europaeus, Triticum vulgaris, Dolichos biflorus and Arachis hypogea lectins were used at dilutions optimised for use with H110D. […] U.europaeus lectin bound to several low molecular weight bands and may be used as an affinity chromatography column for removing low molecular weight protein from OcThHS. The wash-through fractions from such a column were applied to a Con A affinity column and the bound proteins were eluted with a gradient of 0-100% 0.5M methylglucoside (FIG. 9). Fractions were assayed for aminopeptidase-like activity (FIG. 10). Aminopeptidase M-like activity was present in the binding fractions.

[1] = tested on: O. ostertagi extracted residue (microsomal aminopeptidase); assay: Trypsin digestion of O12: aminopeptidase activity released from extracted O. ostertagi residue; type: biochemical, Ostertagia ostertagi
Method: The residue obtained by centrifuging an homogenate of O. ostertagi in phosphate-buffered saline containing 0.02% sodium azide (PBSa) at 26,500 g (max) for 20 minutes in a swing-out rotor was re-extracted 3 times with PBSa, once with 1% polyoxyethylenesorbitan monolaurate (Tween 20) in PBSa and once with 50 mM 3-[N-morpholino]propane-sulphonic acid (MOPS) pH 8.0. The extracted residue was resuspended in 50 mM MOPS to give the equivalent of 0.17 g worm starting material per ml. Aliquots were digested with 0.5, 5, 50 or 500 μg TPCK-trypsin (trypsin treated with L-1-tosylamide-2-phenylethylchloromethyl ketone)/ml. Digestions were stopped by the addition of 10 mM DCI (15 μl/ml). […] Release of microsomal aminopeptidase A activity was negligible from pellets digested with 0-50 μg TPCK-trypsin/ml.
In another experiment material from 5 g O. ostertagi was digested twice with 50 μg/ml TPCK-trypsin. About 33% of the original amount of ApM was released after a second digest. […] Fractions were run on SDS-PAGE on a 6-16% minigel. After Coomassie blue staining, a band located around the 116,000 region, about the size expected from tryptic digestion of O12 was located in the fractions having the microsomal aminopeptidase activity.
A further 4.3 g of O. ostertagi was digested twice with TPCK-trypsin as above. The total aminopeptidase activity solubilised equalled 455 nmoles/min (Table 6). The high speed supernatants from the first and second digests (Trypsin HS1 & HS2) were buffer exchanged with ConA buffer A and run on a ConA sepharose column. The start material applied to the column was enriched for ApM activity, having a ratio of ApM:ApA of 18:1. All the ApM activity bound to the column (there was none in the wash-through); and 67% of this was recovered by elution with 0.5M methylglucopyranoside+0.2M methylmannoside. (Thus the use of two sugars in the eluting buffer more than doubled ApM recovery from the ConA column.) Fractions containing ApM activity were pooled, concentrated and subjected to gel filtration (on an FPLC Superdex 75 HR10/30 (Pharmacia) column). […]

Ostertagia ostertagi PHP = assay: Protease digestion of Oo PhP, release of ApM activity; type: biochemical
Method: Method: Oo PhP was resuspended in 50 mM Mops buffer, pH 7.0 to give 0.1 mg pellet/ml. 50 μl aliquots were prewarmed at 37° C. for 39 minutes. 5 μl of either α-Chymotrypsin (Sigma type VII, 50 units/mg solid), Subtilisin (Sigma type VIII, 11.6 units/mg solid), Trypsin (Sigma, TPCK-treated type XIII, 9700 units/mg solid) or Thermolysin (Sigma, 37 units/mg solid dissolved in 1 mM KCl/2 mM CaCl) was added to give final protease concentrations of 5, 50, 500, 1000 and 2000 μg/ml. Aliquots containing chymotrypsin, trypsin or subtilisin were then incubated at 37° C. for 1 hour and protease activity inhibited by the addition of 1 μl 10 mM 3,4-dichloroisocoumarin (DCI). Aliquots containing thermolysin were incubated for 2 hours at 37° C. and activity inhibited by the addition of 1 μl 0.25M EDTA. Samples were spun at high speed on the airfuge at 20 psi for 20 minutes at room temperature. 5 μl samples were assay for ApM activity, using the microtitre plate method, over 29.6 minutes with methionine-pNA as substrate.

CC(C)C[C@@H](N)[C@H](O)C(=O)N[C@H](C(=O)N[C@H](C(=O)N[C@@H](CC(=O)O)C(=O)O)C(C)C)C(C)C [Amaststin, amastatin] gave a Leu-pNA enzyme activity (Con A Oo12 ApM activity; inhibitor 10 μM) of 0.218 nmoles/min/10 μl ConA O12, a Leu-pNA enzyme inhibition (Con A Oo12 ApM activity; inhibitor 10 μM) of 86% and a Leu-pNA enzyme activity (Con A Oo12 ApM activity; inhibitor 50 μM) of 0.074 nmoles/min/10 μl ConA O12. The Leu-pNA enzyme inhibition (Con A Oo12 ApM activity; inhibitor 50 μM) was 95%, the α-Glu-pNA enzyme activity (Con A Oo12 ApA activity; inhibitor 10 μM) was 0.282 nmoles/min/10 μl ConA O12 and the α-Glu-pNA enzyme inhibition (Con A Oo12 ApA activity; inhibitor 10 μM) was 12%. The α-Glu-pNA enzyme activity (Con A Oo12 ApA activity; inhibitor 50 μM) was 0.205 nmoles/min/10 μl ConA O12, the α-Glu-pNA enzyme inhibition (Con A Oo12 ApA activity; inhibitor 50 μM) was 36% and the “inhibition of pig ApA versus ApM” value (pig ApA and ApM) was “better inhibitor of pig ApA than of ApM”.

B1: D.biflorus lectin: biotinylated Dolichos biflorus lectin (protein)
chain: ANIQSFSFKNFNSPSFILQGDATVSSGKLQLTKVKENGIPTPSSLGRAFYSSPIQIYDKSTGAVASWATSFTVKISAPSKASFADGIAFALVPVGSEPRRNGGYLGVFDSDVYNNSAQTVAVEFDTFSNSGWDPSMKHIGIDVNSIKSIATVSWDLANGENAEILITYNAATSLLVASLVHPSRRTSYILSERVDITNELPEYVSVGFSATTGLSEGYIETHDVLSWSFASKLPDDSTAEPLDLASYLVRNVL
With B1 the “binding of biotinylated lectin to Oc12” value (Oc12) was “binds very weakly”.

B2: Trypsin: protease, Sigma, TPCK-treated type XIII, 9700 units/mg solid (protein, UniProt P00760 24-246, looked up)
Serine protease 1: IVGGYTCGANTVPYQVSLNSGYHFCGGSLINSQWVVSAAHCYKSGIQVRLGEDNINVVEGNEQFISASKSIVHPSYNSNTLNNDIMLIKLKSAASLNSRVASISLPTSCASAGTQCLISGWGNTKSSGTSYPDVLKCLKAPILSDSSCKSAYPGQITSNMFCAGYLEGGKDSCQGDSGGPVVCSGKLQGIVSWGSGCAQKNKPGVYTKVCNYVSWIKQTIASN
modifications: TPCK-treated
notes: protease, Sigma, TPCK-treated type XIII, 9700 units/mg solid
In the case of B2, the “release of microsomal aminopeptidase A activity” value ([1]; 0-50 μg TPCK-trypsin/ml) is reported as “negligible”, the “release of microsomal aminopeptidase M activity” value ([1]; 50 μg TPCK-trypsin (485 units), of 0.5, 5, 50 or 500 μg/ml) is reported as “greatest amount” and the “original amount of ApM released after a second digest” value ([1]; 5 g O. ostertagi digested twice with 50 μg/ml) is reported as “About 33%”. For the same molecule, the “Aminopeptidase M activity released by protease digestion, Met-pNA” value (shortened to “Aminopeptidase M activity released”) (Ostertagia ostertagi PHP; 5 μg protease/0.1 mg PHP/ml) was 0.118 nmoles/min/5 μl high speed supernatant, the “Aminopeptidase M activity released” value (Ostertagia ostertagi PHP; 50 μg protease/0.1 mg PHP/ml) was 0.246 nmoles/min/5 μl high speed supernatant and the “Aminopeptidase M activity released” value (Ostertagia ostertagi PHP; 500 μg protease/0.1 mg PHP/ml) was 1.075 nmoles/min/5 μl high speed supernatant. The “Aminopeptidase M activity released” value (Ostertagia ostertagi PHP; 1000 μg protease/0.1 mg PHP/ml) was 1.273 nmoles/min/5 μl high speed supernatant and the “Aminopeptidase M activity released” value (Ostertagia ostertagi PHP; 2000 μg protease/0.1 mg PHP/ml) was 1.068 nmoles/min/5 μl high speed supernatant.

— patent publication US6413521B1, “Helminth parasite antigen with aminopeptidase-like activity” (The Barbraham Institute, priority 1993, dated 2002)
